Data taken from US20160082161A1, “DRUG-ELUTING MEDICAL DEVICES” (Ramot at Tel-Aviv University Ltd., priority 2008, published 2016).

Assay: In vitro drug release from drug-eluting composite fibers in PBS
Type: physicochemical
Conditions: PBS pH 7.4, 37° C.; PDLGA porous coat
Procedure: The composite drug-eluting fibers were immersed in phosphate buffered saline (PBS) at 37° C. and pH 7.4 for 35 days (FTS) or 37 weeks (paclitaxel), in triplicates, in order to determine the release kinetics from the drug-loaded composite structures. Each test vial contained 2 fibers; each fiber was 5 cm long. The release studies were conducted in closed glass tubes containing 3 ml PBS medium, using a horizontal bath shaker operated at a constant rate of 130 rpm. The medium was removed completely at certain sampling time points, extracted from the aqueous medium as described herein and measured using HPLC. Fresh medium was then introduced. At the end of the experiment the fibers were immersed in methylene chloride and the residual amount of drug was measured.
The drug content of the medium samples was determined using Jasco High Performance Liquid Chromatography (HPLC) equipped with a UV 2075 plus detector and a quaternary gradient pump (PU 2089 plus). […] The paclitaxel content of the medium samples was determined using a reverse phase column (Zorbax ODS 5 μm, inner diameter 4.6 mm, length 150 mm), and kept at 25° C. […]
On the final day of the in vitro trial, residual FTS from composite drug-eluting fibers was measured as follows: the fibers were placed in 1 ml methylene chloride for 10 minutes and the coating shell was dissolved. […]

Row | SMILES | Drug release from porous coat structures (time scale)
1 | CC(C)=CCCC(C)=CCCC(C)=CCSc1ccccc1C(=O)O (stereo in doubt) [FTS, 2-((2E,6E)-3,7,11-trimethyldodeca-2,6,10-trienylthio)benzoic acid] | relatively fast FTS release within several weeks
2 | CC(=O)O[C@H]1C(=O)[C@@]2(C)[C@H]([C@H](OC(=O)c3ccccc3)[C@]3(O)C[C@H](OC(=O)[C@H](O)[C@@H](NC(=O)c4ccccc4)c4ccccc4)C(C)=C1C3(C)C)[C@]1(OC(C)=O)CO[C@@H]1C[C@@H]2O [paclitaxel, Paclitaxel] | slower paclitaxel release within several months
